Experimental findings from patent US20140162285A1, “Methods of Modulating Vesicular Trafficking” (The General Hospital Corporation, priority 2009, published 2014) are described below.

Peptide text beside a SMILES is read from it. * marks the point of attachment. Biotin = O=C1N[C@H]2[C@H](CS[C@H]2CCCCC(=O)*)N1

One test has as its target T1, PB-domain of ARNO (Homo sapiens, UniProt Q99418).
T1 construct: v) 379-400aa, polybasic (PB) domain; made in house; host or cells: E. coli BL21(DE3)
Nature of the test: a2N-derived peptide pull-down with GST-PB domain. Format: binding. As to the method:
FIGS. 5A-C are a set of three images of Western blots showing the identification of interaction motif of a2N that is involved in specific binding with the Sec7 domain of ARNO. 5A, The catalytic Sec7 domain of ARNO interacts with two a2N-derived peptides, a2N-01 and a2N-03, in pull-down experiments. The peptide pull-down assay was performed with six a2N-derived interaction peptides immobilized on streptavidin-beads and incubated with purified recombinant GST-only or GST-Sec7 domain. Interacting complexes were eluted and analyzed by Western blotting using monoclonal anti-GST antibodies as described below. The loading controls for GST-only (lane 1) or GST-Sec7 (lane 2) are shown. […] The peptide pull-down assay was performed with peptides a2N-01 and a2N-03 immobilized on streptavidin-beads and incubated with purified recombinant GST-PH domain (5B) or GST-PB domain (5C). Interacting complexes were eluted and analyzed by Western blotting using monoclonal anti-GST antibodies. […]
These a2N-derived peptides were immobilized by an N-terminal biotin-tag, which ensured the same efficiency and equivalent binding to streptavidin-agarose beads. […] After washing beads four times in ice-cold binding buffer, the interacting complexes were eluted by boiling in SDS-PAGE sample buffer for 10 min at 95° C., resolved by SDS-PAGE and analyzed by Western blotting using monoclonal anti-GST antibody. […]

The next test deals with T2, ARNO CC-domain (Homo sapiens, UniProt Q99418).
T2 construct: ii) 1-60aa, coiled-coil (CC) domain; made in house; host or cells: E. coli BL21(DE3)
T2 sequence (Q99418 1-60): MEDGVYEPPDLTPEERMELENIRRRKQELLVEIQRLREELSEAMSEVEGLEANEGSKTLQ
Nature of the test: GST pull-down of in vitro translated a2N with ARNO CC-domain. Format: binding. To be noted: Western blot anti-a2N. As to the method:
The purified recombinant GST-ARNO(wt) and GST-tagged ARNO domain constructs ([…]) were incubated with 10 μl of in vitro translated 6His-a2N recombinant protein at 4° C. for 2 hours in 500 μl of binding buffer (10 mM HEPES, 1 mM EDTA, 1 mM DTT, 100 mM NaCl, 10% glycerol, 0.1% NP-40) with gentle rotation. Then the interacting recombinant proteins were immobilized on glutathione beads by incubation with 50 μl of 50% glutathione Sepharose 4B slurry for 2 hours at 4° C. The beads were collected by centrifugation and washed 5 times with 500 μl ice-cold binding buffer. Interacting proteins were eluted by boiling in SDS-PAGE sample buffer for 10 min at 95° C., resolved by SDS-PAGE and analyzed by Western blotting using polyclonal anti-a2N antibodies. […]
To examine the ability of these well-defined and functionally distinct domains of ARNO to interact with a2N1-402, full-length ARNO(wt) and its four domains were cloned separately for bacterial expression of recombinant proteins (FIG. 3). […] Interacting proteins were detected by western blot analysis with a2-specific antibodies as described above.
For orientation: Immunoblotting shows a protein as a band on a membrane.

T1 sequence (Q99418 379-400 limits assumed): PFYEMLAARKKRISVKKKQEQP

For the molecule `CSCC[C@H](NC(=O)CCCC[C@@H]1SC[C@@H]2NC(=O)N[C@@H]21)C(=O)NCC(=O)N[C@@H](CO)C(=O)N[C@@H](CC(C)C)C(=O)N[C@@H](Cc1ccccc1)C(=O)N[C@@H](CCCNC(=N)N)C(=O)N[C@@H](CO)C(=O)N[C@@H](CCC(=O)O)C(=O)N[C@@H](CO)C(=O)N[C@@H](CCSC)C(=O)N[C@@H](CS)C(=O)N[C@@H](CC(C)C)C(=O)N[C@@H](C)C(=O)N[C@@H](CCC(N)=O)C(=O)N[C@@H](CC(C)C)C(=O)N[C@@H](Cc1ccccc1)C(=O)N[C@@H](CC(C)C)C(=O)N[C@@H](CS)C(=O)O` [a2N-01, Bio-MGSLFRSE SMCLAQLFL-Cys] (Biotin-MGSLFRSESMCLAQLFLC-OH; N-terminus and C-terminus assumed), at PB-domain of ARNO, the “interaction with PB-domain of ARNO” value is recorded as “does not interact”.

B1: a2N: recombinant N-terminal cytosolic tail, amino acid residues 1-402 of mouse V-ATPase a2-subunit (protein)
chain: MGSLFRSESMCLAQLFLQSGTAYECLSALGEKGLVQFRDLNQNVSSFQRKFVGEVKRCEELERILVYLVQEITRADIPLPEGEASPPAPPLKHVLEMQEQLQKLEVELREVTKNKEKLRKNLLELVEYTHMLRVTKTFLKRNVEFEPTYEEFPALENDSLLDYSCMQRLGAKLGFVSGLIQQGRVEAFERMLWRACKGYTIVTYAELDECLEDPETGEVIKWYVFLISFWGEQIGHKVKKICDCYHCHIYPYPNTAEERREIQEGLNTRIQDLYTVLHKTEDYLRQVLCKAAESVCSRVVQVRKMKAIYHMLNMCSFDVTNKCLIAEVWCPEVDLPGLRRALEEGSRESGATIPSFMNTIPTKETPPTLIRTNKFTEGFQNIVDAYGVGSYREVNPALFTII
modifications: left off: small tags and cut ends
notes: recombinant N-terminal cytosolic tail, amino acid residues 1-402 of mouse V-ATPase a2-subunit
As to B1, the “interaction of a2N with ARNO CC-domain” value in the test with ARNO CC-domain is on record as “no interaction”.
